{
  "source": "patent EP0598011B1",
  "about": "“ECDYSTEROID DEPENDENT REGULATION OF GENES IN MAMMALIAN CELLS” (GENENTECH, INC., priority 1991, dated 1993)",
  "key": {"GGEc": {"molecular_target": "T1, GGEc (Drosophila melanogaster, UniProt P34021)", "T1 construct": "expressed in transfected cells; host or cells: 293 cells", "T1 sequence (P34021 329-878)": "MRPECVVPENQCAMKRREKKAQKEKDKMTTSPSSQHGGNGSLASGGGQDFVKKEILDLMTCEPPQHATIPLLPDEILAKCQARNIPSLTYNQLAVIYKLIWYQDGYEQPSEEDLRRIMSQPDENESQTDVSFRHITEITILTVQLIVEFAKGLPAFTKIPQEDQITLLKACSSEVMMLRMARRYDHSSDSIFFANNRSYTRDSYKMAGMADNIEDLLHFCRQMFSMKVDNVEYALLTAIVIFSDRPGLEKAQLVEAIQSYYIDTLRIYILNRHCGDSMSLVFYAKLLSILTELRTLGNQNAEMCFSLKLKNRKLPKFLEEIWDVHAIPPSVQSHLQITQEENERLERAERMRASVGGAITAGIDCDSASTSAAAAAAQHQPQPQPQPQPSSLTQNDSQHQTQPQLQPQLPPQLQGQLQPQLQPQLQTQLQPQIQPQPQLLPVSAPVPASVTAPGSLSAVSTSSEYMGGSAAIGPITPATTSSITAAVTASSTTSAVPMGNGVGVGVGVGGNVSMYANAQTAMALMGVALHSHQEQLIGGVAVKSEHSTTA", "assay": "Induction of GRE reporter G4M-77CO by chimeric receptor GGEc in 293 cells", "type": "cell-based", "settings": "GRE reporter G4M-77CO", "from_the_text": "I choose to determine if the ligand-binding domain of DHR23a could be used to regulate the DNA-binding and transactivation domains of the mammalian glucocorticoid receptor for the following reasons. First, in contrast to DHR23α, high affinity DNA-binding sites for the GR have been identified (M. Beato, Cell 56, 335 [1989]) and reporter genes containing these sites are very strongly regulated. Thus, the sensitivity of our assays could be increased. Secondly, these chimeric receptors could be utilized to selectively regulate endogenous genes in mammalian cells in response to ecdysteroids. I constructed a chimeric gene, GGEc, in which the sequences encoding the ligand-binding domain of the GR were replaced with that of DHR23α (Fig. 4A). […] However, expression of the GRE-containing reporter gene was induced more than 700 fold by GGEc in muristerone-treated cells."}, "drosophila cell lines": {"system": "drosophila cell lines", "settings": "cited from earlier work"}, "DHR23α": {"molecular_target": "T2, DHR23α (Drosophila melanogaster, UniProt P34021)", "T2 construct": "To isolate the full-length DHR23α clones; expressed in transfected cells; host or cells: human 293 cells", "T2 sequence (P34021 1-878)": "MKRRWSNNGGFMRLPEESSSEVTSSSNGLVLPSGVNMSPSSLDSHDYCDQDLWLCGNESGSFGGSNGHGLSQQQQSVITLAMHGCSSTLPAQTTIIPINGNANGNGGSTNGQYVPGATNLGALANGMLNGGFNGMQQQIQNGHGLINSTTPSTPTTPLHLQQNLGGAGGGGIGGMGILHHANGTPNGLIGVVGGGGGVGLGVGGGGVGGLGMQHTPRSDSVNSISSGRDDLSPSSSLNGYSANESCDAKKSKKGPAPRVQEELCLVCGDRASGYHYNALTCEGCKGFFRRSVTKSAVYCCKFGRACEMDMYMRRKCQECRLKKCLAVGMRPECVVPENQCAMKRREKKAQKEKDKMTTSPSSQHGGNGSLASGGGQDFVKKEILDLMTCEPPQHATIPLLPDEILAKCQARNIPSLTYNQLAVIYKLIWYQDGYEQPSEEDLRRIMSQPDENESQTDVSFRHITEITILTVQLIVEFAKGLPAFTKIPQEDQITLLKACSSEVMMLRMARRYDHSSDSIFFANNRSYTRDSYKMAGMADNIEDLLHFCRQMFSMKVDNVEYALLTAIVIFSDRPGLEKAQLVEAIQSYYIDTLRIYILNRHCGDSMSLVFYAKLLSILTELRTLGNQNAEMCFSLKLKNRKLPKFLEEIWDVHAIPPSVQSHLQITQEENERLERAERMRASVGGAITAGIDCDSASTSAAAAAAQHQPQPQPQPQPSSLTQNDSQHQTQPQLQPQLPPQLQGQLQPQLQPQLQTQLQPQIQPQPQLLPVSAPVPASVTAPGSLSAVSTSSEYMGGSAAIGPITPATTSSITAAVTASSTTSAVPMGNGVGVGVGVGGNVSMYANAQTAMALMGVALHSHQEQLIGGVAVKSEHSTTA", "T2 sequence (P19793 1-462 partner)": "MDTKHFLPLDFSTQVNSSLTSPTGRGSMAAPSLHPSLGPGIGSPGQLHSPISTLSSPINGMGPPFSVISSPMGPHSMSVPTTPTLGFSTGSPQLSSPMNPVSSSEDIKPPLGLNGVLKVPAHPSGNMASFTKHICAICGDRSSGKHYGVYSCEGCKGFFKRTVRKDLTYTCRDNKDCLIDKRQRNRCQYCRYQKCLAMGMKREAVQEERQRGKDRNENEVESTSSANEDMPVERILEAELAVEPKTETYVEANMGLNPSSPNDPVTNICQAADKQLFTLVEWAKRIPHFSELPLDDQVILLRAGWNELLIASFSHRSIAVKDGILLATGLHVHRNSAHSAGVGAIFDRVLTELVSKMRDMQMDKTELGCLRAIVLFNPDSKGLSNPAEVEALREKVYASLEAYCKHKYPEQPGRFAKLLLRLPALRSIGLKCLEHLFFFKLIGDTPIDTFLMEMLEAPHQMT", "assay": "DHR23α transactivation of EcRE (Ec4M-77CO) CAT reporter in transfected human 293 cells", "type": "cell-based", "settings": "pRSV.DHR23α + pEc4M-77CO (EcRE) CAT reporter, ligand 1 µM, 48 hrs", "method": "Figure. 2. […] Human 293 cells were cotransfected with 2.5 µg of the expression plasmid pRSV.DHR23α or the parental expression plasmid pRSV (Control) and 0.5 µgs of the reporter plasmid pEc4M-77CO (EcRE) or pG4M-77CO (GRE). As a control for transfection efficiency, 0.5 µgs of the control plasmid pRSV.hGH was included in the transfection mixture. After transfection, cells were treated without (-) or with alpha-ecdysone (alpha), 20-OH ecdysone (20-OH), polypodine B (ppB), ponasterone A (ponA) or muristeroine A (murA). CAT extracts were harvested 48 hrs after transfection and assayed. The values were normalized to the expression of hGH and the average values of three independent experiments are shown. The \"fold induction\" represents the level of expression of the reporter gene in cells incubated with hormone divided by the expression of that reporter gene in extracts from cells incubated in the absence of added ligand.\nI determined whether DHR23α could function in mammalian cells treated with ecdysteroids to enhance the transcription of a reporter gene containing EcREs linked to the murine mammary tumor virus (MTV) promoter and chloramphenicol acetyltransferase (CAT) gene. Human 293 cells were cotransfected with an RSV-based expression vector that encodes DHR23a and the reporter gene Ec4M-77CO that contains 4 copies of an ecdysone response element (EcRE) from the Drosophila HSP27 promoter (G. Riddihough and H. R. B. Pelham, EMBO J. 6, 3729 [1987]) linked to an MTV promoter-CAT construct.\nHuman 293 cells were cotransfected with 2.5 µg of the expression plasmid pRSV.DHR23α or the parental expression plasmid pRSV (Control) and 0.5 µgs of the reporter plasmid pEc4M-77CO (EcRE) or pG4M-77CO (GRE). As a control for transfection efficiency, 0.5 µgs of the control plasmid pRSV.hGH was included in the transfection mixture. After transfection, cells were treated without (-) or with alpha-ecdysone (alpha), 20-OH ecdysone (20-OH), polypodine B (ppB), ponasterone A (ponA) or muristeroine A (murA). All candidate ligands were added at a concentration of 1 µM. CAT extracts were harvested 48 hrs after transfection, and assays were performed as described (D. R. Cavener, Nucl. Acids Res. 15, 1353-1361 [1987]). The values were normalized to the expression of hGH and the average values of three independent experiments are shown in Figure 2. The \"fold induction\" represents the level of expression of the reporter gene in cells incubated with hormone divided by the expression of that reporter gene in extracts from cells incubated in the absence of added ligand.\nCells were transfected with the DHR23α expression vector and Ec4M-77CO reporter gene and treated without (-) or with the following hormones (1 µM): muristerone A (mur A) dexamethasone (Dex) 17β-estradiol (E2), aldosterone (Aldo), corticosterone (Cort) hydroxycorticosterone (OH-Cort) thyroid hormone (T3), promegestone (Promeg) or 1,25-dihydroxy vitamin D3 (VD3). Reporter gene activity was determined as described above for Figure 2."}, "GGG": {"molecular_target": "T3, GGG (Rattus norvegicus, UniProt P06536)", "T3 sequence (P06536 1-795)": "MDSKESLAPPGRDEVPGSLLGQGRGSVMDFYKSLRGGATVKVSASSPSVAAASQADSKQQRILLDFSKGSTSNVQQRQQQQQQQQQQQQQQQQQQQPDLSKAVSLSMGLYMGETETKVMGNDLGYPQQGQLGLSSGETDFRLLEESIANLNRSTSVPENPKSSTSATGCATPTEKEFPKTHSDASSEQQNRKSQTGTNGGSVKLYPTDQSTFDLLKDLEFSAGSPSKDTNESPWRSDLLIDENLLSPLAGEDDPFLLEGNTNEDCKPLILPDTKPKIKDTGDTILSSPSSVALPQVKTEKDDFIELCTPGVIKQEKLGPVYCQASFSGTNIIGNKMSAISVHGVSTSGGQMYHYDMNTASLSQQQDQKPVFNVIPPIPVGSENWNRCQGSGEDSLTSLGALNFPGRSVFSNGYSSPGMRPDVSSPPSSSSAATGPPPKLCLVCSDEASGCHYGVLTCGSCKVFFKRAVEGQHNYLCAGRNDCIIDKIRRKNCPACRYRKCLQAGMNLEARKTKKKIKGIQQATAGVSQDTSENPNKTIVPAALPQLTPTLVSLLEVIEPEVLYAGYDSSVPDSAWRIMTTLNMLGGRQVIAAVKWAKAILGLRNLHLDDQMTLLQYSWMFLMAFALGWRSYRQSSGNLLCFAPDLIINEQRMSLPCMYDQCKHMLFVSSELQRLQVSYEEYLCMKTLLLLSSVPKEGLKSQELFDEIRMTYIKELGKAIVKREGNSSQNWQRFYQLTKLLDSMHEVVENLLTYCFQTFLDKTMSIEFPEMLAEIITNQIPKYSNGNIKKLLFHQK", "assay": "Induction of GRE reporter G4M-77CO by GGG (glucocorticoid receptor) in 293 cells", "settings": "normalized to hGH, SD in parentheses, 2880 min"}},
  "data": [
    {"smiles": "CC(C)(O)CC[C@@H](O)[C@](C)(O)[C@H]1CC[C@@]2(O)C3=CC(=O)[C@@H]4C[C@@H](O)[C@@H](O)C[C@]4(C)[C@H]3CC[C@]12C", "note": "[20-OH ecdysone]", "values": [
      {"measurement": "relative efficacies of ecdysteroids as agonists for the chimeric receptor", "setting": "GGEc", "result": "neither α-ecdysone, 20-OH ecdysone or polypodine B acted as agonists"},
      {"measurement": "agonist activity in drosophila cell lines", "setting": "drosophila cell lines", "result": "agonists"},
      {"measurement": "agonist for DHR23α in mammalian cells (expression of the reporter gene)", "setting": "DHR23α", "result": "Neither α-ecdysone, 20-OH ecdysone, nor polypodine B acted as agonists"},
      {"measurement": "agonist for DHR23α in mammalian cells (expression of the reporter gene)", "setting": "DHR23α; 1 µM", "result": "inactive"}
    ]},
    {"smiles": "C[C@@H]1C[C@H]2[C@@H]3CCC4=CC(=O)C=C[C@]4(C)[C@@]3(F)[C@@H](O)C[C@]2(C)[C@@]1(O)C(=O)CO", "note": "[dexamethasone]", "values": [
      {"measurement": "fold induction", "setting": "GGG", "result": 347, "unit": "fold"}
    ]},
    {"smiles": "CC(C)(O)CC[C@@H](O)[C@](C)(O)[C@H]1CC[C@@]2(O)C3=CC(=O)[C@]4(O)C[C@@H](O)[C@@H](O)C[C@]4(C)[C@H]3CC[C@]12C", "note": "[polypodine B]", "values": [
      {"measurement": "relative efficacies of ecdysteroids as agonists for the chimeric receptor", "setting": "GGEc", "result": "neither α-ecdysone, 20-OH ecdysone or polypodine B acted as agonists"},
      {"measurement": "agonist activity in drosophila cell lines", "setting": "drosophila cell lines", "result": "agonists"},
      {"measurement": "agonist for DHR23α in mammalian cells (expression of the reporter gene)", "setting": "DHR23α", "result": "Neither α-ecdysone, 20-OH ecdysone, nor polypodine B acted as agonists"}
    ]},
    {"smiles": "CC(C)CC[C@@H](O)[C@](C)(O)[C@H]1CC[C@@]2(O)C3=CC(=O)[C@@H]4C[C@@H](O)[C@@H](O)C[C@]4(C)[C@H]3CC[C@]12C", "note": "[ponasterone A]", "values": [
      {"measurement": "relative efficacies of ecdysteroids as agonists for the chimeric receptor", "setting": "GGEc", "result": "weak"},
      {"measurement": "agonist for DHR23α in mammalian cells (expression of the reporter gene)", "setting": "DHR23α", "result": "weak agonist"}
    ]},
    {"smiles": "C[C@H]([C@H](O)CCC(C)(C)O)[C@H]1CC[C@@]2(O)C3=CC(=O)[C@@H]4C[C@@H](O)[C@@H](O)C[C@]4(C)[C@H]3CC[C@]12C", "note": "[α-ecdysone]", "values": [
      {"measurement": "relative efficacies of ecdysteroids as agonists for the chimeric receptor", "setting": "GGEc", "result": "neither α-ecdysone, 20-OH ecdysone or polypodine B acted as agonists"},
      {"measurement": "agonist for DHR23α in mammalian cells (expression of the reporter gene)", "setting": "DHR23α", "result": "Neither α-ecdysone, 20-OH ecdysone, nor polypodine B acted as agonists"}
    ]}
  ]
}
